# Results published in patent publication US20100267706A1, “Compounds, Compositions and Methods Comprising Pyridazine Derivatives” (Institute for OneWorld Health, priority 2009, published 2010).
# Molecular target: T1, CFTR (Homo sapiens, UniProt P13569)
# T1 construct: host or cells: Human colonic T84 cells
# Experiment: T84 assay (FLIPR membrane potential, forskolin/IBMX-stimulated CFTR channel activity)
# Assay type: cell-based
# Conditions: Human colonic T84 cells; average of at least 2 runs unless annotated n = 1
# Protocol: (§1) For example, Human colonic T84 cells can be acquired from the European Collection of Cell Cultures (ECACC) and grown in standard culture conditions as described by the supplier. On the day before assay 25,000 T84 cells per well are plated into standard black walled, clear bottom 384-well assay plates in standard growth medium consisting of DMEM:F12 with 10% FBS and incubated overnight. On the day of the assay the plates are washed using a standard assay buffer (HBSS with 10 mM Hepes) and incubated for 15 minutes in serum free cell culture medium before the addition of a commercially available membrane potential sensitive fluorescent dye (FLIPR Red membrane potential dye, Molecular Devices Corporation). T84 cells are incubated with the FLIPR Red membrane potential dye for 45 minutes in the presence and absence of test compound before being transferred to a commercially available fluorescence imaging plate reader (FLIPR384, Molecular Devices Corporation). Fluorescence levels are monitored continuously every second for 150 seconds; after an initial 10 second baseline, CFTR channel activity is stimulated through the addition of 10 μM forskolin in the presence of 100 μM of the phosphodiesterase inhibitor iso-butyl-methylxanthine (IBMX). Addition of the forskolin leads to the activation of intracellular adenylyl cylase 1, elevating cAMP levels and results in the phosphorylation and opening of CFTR anion channels. CFTR channel opening causes chloride ion efflux and subsequent depolarization of the cells, which is measured by an increase in fluorescence. CFTR inhibitor compounds prevent cell depolarization and the associated increase in fluorescence.
# as §1, with “Human colonic” for “For example, Human colonic”, “T84 cells are acquired from” for “T84 cells can be acquired from”, “(ECACC) and are grown in” for “(ECACC) and grown in”
# T1 sequence (P13569 whole entry): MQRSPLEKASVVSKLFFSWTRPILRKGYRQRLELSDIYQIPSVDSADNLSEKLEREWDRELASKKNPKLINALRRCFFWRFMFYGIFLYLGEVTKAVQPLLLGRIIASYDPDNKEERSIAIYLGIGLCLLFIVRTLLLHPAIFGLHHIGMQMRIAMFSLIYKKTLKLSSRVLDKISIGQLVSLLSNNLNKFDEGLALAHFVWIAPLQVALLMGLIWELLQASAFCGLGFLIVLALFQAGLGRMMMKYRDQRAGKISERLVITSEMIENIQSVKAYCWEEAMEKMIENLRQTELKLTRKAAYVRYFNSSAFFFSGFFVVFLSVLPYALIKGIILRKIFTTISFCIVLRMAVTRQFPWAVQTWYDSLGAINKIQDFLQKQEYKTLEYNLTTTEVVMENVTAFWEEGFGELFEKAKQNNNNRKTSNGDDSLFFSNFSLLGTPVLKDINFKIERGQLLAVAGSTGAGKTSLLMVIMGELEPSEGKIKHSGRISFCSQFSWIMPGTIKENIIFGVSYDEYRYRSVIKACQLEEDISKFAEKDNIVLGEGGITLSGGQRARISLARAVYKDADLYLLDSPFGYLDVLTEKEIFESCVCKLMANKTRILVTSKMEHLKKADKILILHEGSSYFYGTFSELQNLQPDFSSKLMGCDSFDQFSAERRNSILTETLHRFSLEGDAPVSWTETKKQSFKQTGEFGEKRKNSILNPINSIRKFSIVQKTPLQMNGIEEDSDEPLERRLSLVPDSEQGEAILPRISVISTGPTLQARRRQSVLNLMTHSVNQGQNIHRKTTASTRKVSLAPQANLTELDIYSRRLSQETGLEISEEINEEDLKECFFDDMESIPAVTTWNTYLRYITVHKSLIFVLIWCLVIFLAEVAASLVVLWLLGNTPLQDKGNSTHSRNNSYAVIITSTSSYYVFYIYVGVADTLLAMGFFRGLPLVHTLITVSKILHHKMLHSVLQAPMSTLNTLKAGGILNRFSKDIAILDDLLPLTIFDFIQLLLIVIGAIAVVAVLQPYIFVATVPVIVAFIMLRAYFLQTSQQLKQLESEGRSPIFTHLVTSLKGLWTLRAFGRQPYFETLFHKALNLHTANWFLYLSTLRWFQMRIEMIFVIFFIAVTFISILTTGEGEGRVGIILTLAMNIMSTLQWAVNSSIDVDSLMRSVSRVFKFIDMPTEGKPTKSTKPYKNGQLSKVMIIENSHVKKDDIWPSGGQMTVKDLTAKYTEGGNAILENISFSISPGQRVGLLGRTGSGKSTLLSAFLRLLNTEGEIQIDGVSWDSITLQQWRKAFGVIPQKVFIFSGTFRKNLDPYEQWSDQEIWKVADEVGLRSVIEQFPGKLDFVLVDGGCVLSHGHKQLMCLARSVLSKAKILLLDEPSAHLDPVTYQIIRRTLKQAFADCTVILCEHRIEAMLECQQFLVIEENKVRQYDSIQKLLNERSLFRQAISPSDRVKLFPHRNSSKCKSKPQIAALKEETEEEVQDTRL
row,SMILES,IC50
1,"O=C(c1cc(-c2cc(Cl)c(O)c(Cl)c2)nnc1OCCc1ccc(Cl)cc1)N(CCO)Cc1ccccc1 [Compound 11, N-benzyl-3-(4-chlorophenethoxy)-6-(3,5-dichloro-4-hydroxyphenyl)-N-(2-hydroxyethyl)pyridazine-4-carboxamide]",8.26 µM
2,"O=C(c1cc(-c2cc(Cl)c(O)c(Cl)c2)nnc1OCCc1ccc(Cl)cc1)N(CCO)Cc1cccnc1 [Compound 24, 3-(4-chlorophenethoxy)-6-(3,5-dichloro-4-hydroxyphenyl)-N-(2-hydroxyethyl)-N-(pyridin-3-ylmethyl)pyridazine-4-carboxamide]",19.4 µM
3,"O=C(c1cc(-c2cc(Cl)c(O)c(Cl)c2)nnc1OCCc1ccc(Cl)cc1)N(CCO)Cc1ccccn1 [Compound 25, 3-(4-chlorophenethoxy)-6-(3,5-dichloro-4-hydroxyphenyl)-N-(2-hydroxyethyl)-N-(pyridin-2-ylmethyl)pyridazine-4-carboxamide]",14.7 µM
4,"O=C(c1cc(-c2cc(Cl)c(O)c(Cl)c2)nnc1OCCc1ccc(Cl)cc1)N(Cc1ccccc1)CC(F)(F)F [Compound 26, N-benzyl-3-(4-chlorophenethoxy)-6-(3,5-dichloro-4-hydroxyphenyl)-N-(2,2,2-trifluoroethyl)pyridazine-4-carboxamide]",23.5 µM
5,"CCN(Cc1ccccc1)C(=O)c1cc(-c2cc(Cl)c(O)c(Cl)c2)nnc1OCCc1ccc(Cl)cc1 [Compound 27, N-benzyl-3-(4-chlorophenethoxy)-6-(3,5-dichloro-4-hydroxyphenyl)-N-ethylpyridazine-4-carboxamide]",17 µM
6,"CN(Cc1ccccc1)C(=O)c1cc(-c2cc(Cl)c(O)c(Cl)c2)nnc1OCCc1ccc(Cl)cc1 [Compound 28, N-benzyl-3-(4-chlorophenethoxy)-6-(3,5-dichloro-4-hydroxyphenyl)-N-methylpyridazine-4-carboxamide]",10.2 µM
7,"COCCN(Cc1ccccc1)C(=O)c1cc(-c2cc(Cl)c(O)c(Cl)c2)nnc1OCCc1ccc(Cl)cc1 [Compound 29, N-benzyl-3-(4-chlorophenethoxy)-6-(3,5-dichloro-4-hydroxyphenyl)-N-(2-methoxyethyl)pyridazine-4-carboxamide]",8.5 µM
8,"O=C(c1cc(-c2cc(Cl)c(O)c(Cl)c2)nnc1OCCc1ccc(Cl)cc1)N(CCO)Cc1ccc(Cl)c(Cl)c1 [Compound 30, 3-(4-chlorophenethoxy)-6-(3,5-dichloro-4-hydroxyphenyl)-N-(3,4-dichlorobenzyl)-N-(2-hydroxyethyl)pyridazine-4-carboxamide]",19 µM
9,"COc1ccc(CN(CCO)C(=O)c2cc(-c3cc(Cl)c(O)c(Cl)c3)nnc2OCCc2ccc(Cl)cc2)cc1 [Compound 31, 3-(4-chlorophenethoxy)-6-(3,5-dichloro-4-hydroxyphenyl)-N-(2-hydroxyethyl)-N-(4-methoxybenzyl)pyridazine-4-carboxamide]",25.2 µM
10,"O=C(c1cc(-c2cc(Cl)c(O)c(Cl)c2)nnc1OCCc1ccc(Cl)cc1)N(CCO)Cc1ccc2c(c1)OCO2 [Compound 32, N-(benzo[d][1,3]dioxol-5-ylmethyl)-3-(4-chlorophenethoxy)-6-(3,5-dichloro-4-hydroxyphenyl)-N-(2-hydroxyethyl)pyridazine-4-carboxamide]",16.1 µM
11,"COc1ccc(CN(CCO)C(=O)c2cc(-c3cc(Cl)c(O)c(Cl)c3)nnc2OCCc2ccc(Cl)cc2)cc1OC [Compound 33, 3-(4-chlorophenethoxy)-6-(3,5-dichloro-4-hydroxyphenyl)-N-(3,4-dimethoxybenzyl)-N-(2-hydroxyethyl)pyridazine-4-carboxamide]",13.7 µM
12,"CC(C)(C)c1ccc(CNC(=O)c2cc(-c3cc(Cl)c(O)c(Cl)c3)nnc2OCCc2ccc(Cl)cc2)cc1 [Compound 34, N-(4-tert-butylbenzyl)-3-(4-chlorophenethoxy)-6-(3,5-dichloro-4-hydroxyphenyl)pyridazine-4-carboxamide]",20.1 µM

# System: cholera toxin (CTX)-induced net fluid secretion in small intestine loops
# Experiment: not given
# Assay type: in vivo, mice (CD1 strain)
# Conditions: 4 hours
row,SMILES,closed loop % inhibition@100 μg
1,"O=C(c1cc(-c2cc(Cl)c(O)c(Cl)c2)nnc1OCCc1ccc(Cl)cc1)N(CCO)Cc1ccccc1 [Compound 11, N-benzyl-3-(4-chlorophenethoxy)-6-(3,5-dichloro-4-hydroxyphenyl)-N-(2-hydroxyethyl)pyridazine-4-carboxamide]",63.2%
